According to patent publication US8088752B2, “Methods for metabolic modulation” (VDF FutureCeuticals, Inc., priority 2003, dated 2012):
“Also recorded” adds a separate entry of the source.

Assays:
muscle cells = assay: In vitro myocyte total glucose uptake, fluorescent glucose analog; format: cell-based; details: summary of Table 4
Protocol: Total glucose uptake was measured using fluorescent glucose analog from Molecular Probes. Briefly, muscle cells were treated with kinetin, N^2-Acetyl-Guanosine and N^2-Acetyl-Guanine for 30 minutes at 37 C first and subsequently, these cells were exposed to 500 μM of fluorescent glucose analog for 5 minutes at room temperature. Next, cells were washed twice with cold Krebs-Hepes buffered solution and fixed in 70% ethanol in water. Fluorescence of fluorescent glucose in the cells was measured using fluorescent plate reader at 480/530 nm (excitation/emission). […] Table 4 refers to multiple independent experiments where multiple identical concentrations for the same reagents are indicated.

activated AMPK = assay: Level of activated AMPK in muscle cells, Western immunoblotting; format: cell-based, mouse; details: for AMPK activity (in words): summary of Table 1
Protocol: (§1) In Vitro Effect of Selected Compounds on Glut-4, activated AMPK, and activated Akt The levels of Glut-4, activated AMPK and activated Akt were measured in mouse muscle cells C2C12 (from ATTC) and in primary culture of human skeletal muscle cells (Clonetics, Inc.) using Western immunoblotting. C2C12 cells were plated at […] cells per mL/well (12-well plate) in standard cell culture medium (DMEM supplemented with 10% fetal bovine serum (FBS), 25 mM glucose, 20 mM Hepes, 4 mM glutamine and 2 mM sodium pyruvate. 48 hrs after the plating, medium was changed to differentiation medium (DMEM supplemented with 5 mM of glucose and 0.5% of FBS) for next 3-4 days to stimulate the formation of myotubes. Three hrs before the treatment with selected agents, cells were washed with PBS and transferred to PBS supplemented with 5 mM of glucose.
(§2) Human skeletal muscle cells (HSKM) were cultured in SKBM-2 mediums provided by Clonetics. 48 hrs after cell plating, medium was changed to SKBM medium to stimulate differentiation of the cells to myotubes. When differentiated, the myotubes were transferred to PBS supplemented with 5 mM glucose for three hrs before the treatment.
(§3) Analysis of C2C12 cells for the level of activated AMPK, Akt and the level of GLUT-4 was performed in the same experimental system. The cells were treated for 30 minutes at 37° C. […] Subsequently, 20 μg per sample of sample protein was used for Western analysis using NuPage 10% Bis/Tris gels (Invitrogen). After exposure of membranes to primary and secondary antibodies AMPK, AKT or Glut-4 was detected using ECL-Plus (Amersham) following producer's instruction. Chemilumiscent signals were detected by using ChemiDoc system from Biorad. Intensity of detected signals were analyzed and measured using Quantity One software (Biorad). Alternatively, the level of phosphorylated AMPK was detected using ECL kit from Amersham and short exposure to Kodak films.
(§4) Experimental setup: Cell Culture was followed by treatment with selected contemplated compounds, which was followed by cell lysis and western blot analysis for AMPK, Akt, GLUT4, total AMPK, and total Akt. Signals were acquired accordingly.

activated Akt = assay: Level of activated Akt in muscle cells, Western immunoblotting; format: cell-based, mouse; details: for Akt activity (in words): summary of Table 2; for FOLD AKT ACTIVATION (OVER CONTROL): 30 minutes
Protocol: as §1, §2, §3, §4

GLUT-4 = GLUT-4 protein level in C2C12 cells, Western immunoblotting; format: cell-based, mouse; details: summary of Table 3
Protocol: as §1
Analysis of C2C12 cells for the level of activated AMPK, Akt and the level of GLUT-4 was performed in the same experimental system. The cells were treated for 30 minutes at 37° C. […] After exposure of membranes to primary and secondary antibodies AMPK, AKT or Glut-4 was detected using ECL-Plus (Amersham) following producer's instruction. Chemilumiscent signals were detected by using ChemiDoc system from Biorad. Intensity of detected signals were analyzed and measured using Quantity One software (Biorad). Alternatively, the level of phosphorylated AMPK was detected using ECL kit from Amersham and short exposure to Kodak films. […]

[1] = Serum level of DHZ in mice after oral or i.p. administration (ELISA); format: in vivo, mouse; details: C57/B1 mice, 100 microgram/dose
Protocol: C57/B1 mice were treated with 100 microgram/dose of dihydrozeatin (DHZ) for 0, 15, 30, 60 and 120 minutes following oral or i.p. administration. Serum level of DHZ in pg/ml was measured using DHZ Elisa following procedures as enclosed in a commercially available test kit (e.g., dihydrozeatin competitive ELISA test system for plant growth hormone detection, Agdia, Elkhard, Ind.). Three animals were used per experimental point.

Q: For `CC(=O)Nc1nc2c(ncn2[C@@H]2O[C@H](CO)[C@@H](O)[C@H]2O)c(=O)[nH]1` [N^2-Acetyl-Guanosine], which “glucose uptake in muscle cells in vitro (in words)” value (muscle cells) is on record?
A: The value was “potently enhance glucose uptake”.

Q: And the “AMPK activity (in words)” value (activated AMPK)?
A: The value was “potent activators of AMPK as well as Akt”.

Q: What about the “Akt activity (in words)” value (activated Akt) of the same compound?
A: Its value is “potent activators of AMPK as well as Akt”.

Q: And the “GLUT-4 protein level (in words)” value (GLUT-4)?
A: The value was “potently increase GLUT-4 protein level”.

Q: For `Nc1nc2c(ncn2[C@@H]2O[C@H](CO)[C@@H](O)[C@H]2O)c(=O)[nH]1` [Guanosine], which “AMPK activity (in words)” value (activated AMPK) is on record?
A: Its value is “potent activators of AMPK as well as Akt”.

Q: What about the “Akt activity (in words)” value (activated Akt) of the same compound?
A: The value was “potent activators of AMPK as well as Akt”.

Q: For `CC(CO)CCNc1ncnc2nc[nH]c12` (stereo not drawn) [Dihydro-Zeatin, dihydrozeatin], which “time over which significant serum concentrations can be maintained” value [1] is on record?
A: The value was “at least 120 minutes”.

Q: What about the “oral bioavailability (in words)” value ([1]; oral) of the same compound?
A: The value was “readily bioavailable from the oral route”.

Q: Which “FOLD AKT ACTIVATION (OVER CONTROL)” value (activated Akt; 0.8 microM) does the source give for `CC(C)=CCNc1ncnc2nc[nH]c12` [Gamma, Gamma-Dimethylally-6-Aminopurine] here?
A: Its value is 1.90 fold.

Q: For `NC(=O)c1ncn([C@@H]2O[C@H](CO)[C@@H](O)[C@H]2O)c1N` [AICAR, 4-Amino-5-imidazolecarboxamide riboside, reference compound], which “FOLD AKT ACTIVATION (OVER CONTROL)” value (activated Akt; 50.0 microM) is on record?
A: The value was 2.20 fold.

Q: For `c1coc(CNc2ncnc3[nH]cnc23)c1` [Kinetin, kinetin], which “glucose uptake in muscle cells in vitro (in words)” value (muscle cells) is on record?
A: Its value is “potently enhance glucose uptake”.

Q: And the “AMPK activity (in words)” value (activated AMPK)?
A: The value was “more potent compounds”.

Q: And the “GLUT-4 protein level (in words)” value (GLUT-4)?
A: Its value is “potently increase GLUT-4 protein level”.

Q: What does the source list for `CC(=O)Nc1nc2nc[nH]c2c(=O)[nH]1` [N^2-Acetyl-Guanine, N2-acetylguanine]?
A: glucose uptake in muscle cells in vitro (in words) (muscle cells): potently enhance glucose uptake; AMPK activity (in words) (activated AMPK): potent activators of AMPK as well as Akt; Akt activity (in words) (activated Akt): potent activators of AMPK as well as Akt; GLUT-4 protein level (in words) (GLUT-4): potently increase GLUT-4 protein level

Q: With “Insulin: Insulin, comparator in the Akt activation test” as the compound, how does the “FOLD AKT ACTIVATION (OVER CONTROL)” value (activated Akt; 0.10 nanoM) read?
A: Its value is 1.75 fold.

Q: What about the “FOLD AKT ACTIVATION (OVER CONTROL)” value (activated Akt; 25.0 nanoM) of the same compound?
A: Its value is 3.40 fold.

Q: What about the “FOLD AKT ACTIVATION (OVER CONTROL)” value (activated Akt; 50.0 nanoM) of the same compound?
A: The value was 3.28 fold.

Q: For `c1ccc(CNc2ncnc3nc[nH]c23)cc1` [Benzyl-Adenine], which “FOLD AMPK ACTIVATION (OVER CONTROL)” value (activated AMPK; 5.0 microM, 30 minutes) is on record?
A: The value was 2.70 fold.

Q: Which “FOLD AKT ACTIVATION (OVER CONTROL)” value (activated Akt; 20.0 milliM) does the source give for `CN(C)C(=N)N=C(N)N` [Metformin, reference compound] here?
A: Its value is 2.32 fold.

Q: Which “AMPK activity (in words)” value (activated AMPK) does the source give for `C/C(=C\CNc1ncnc2[nH]cnc12)CO` [Zeatin] here?
A: Its value is “more potent compounds; also recorded: potent stimulator of AMPK”.

Q: What about the “FOLD AKT ACTIVATION (OVER CONTROL)” value (activated Akt; 1.0 microM) of the same compound?
A: Its value is 0.95 fold.

Q: And the “Akt activity (in words)” value (activated Akt)?
A: The value was “not Akt”.

Q: What does the source list for `C/C(=C\CNc1ncnc2nc[nH]c12)CO` [Trans-Zeatin]?
A: FOLD AKT ACTIVATION (OVER CONTROL) (activated Akt; 1.0 microM): 0.90 fold; FOLD AKT ACTIVATION (OVER CONTROL) (activated Akt; 10.0 microM): 0.86 fold
